In patent US20240287093A1, “HIGH ACTIVITY STING PROTEIN AGONIST” (ADLAI NORTYE BIOPHARMA CO., LTD., priority 2018, published 2024):

Experiments:
Format in all cases: cell-based
[1] = target: T1, STING variants (WT) (Homo sapiens, UniProt Q86WV6); test: SEAP reporter assay in HEK-Blue ISG KO-STING cells transfected with STING WT variant (Method 1); details: 24 h
T1 construct: host or cells: HEK-Blue ISG KO-STING cells (Invivogen, hkb-kostg)
Description: (§1) Example I: STING Variants (WT & HAQ) Activation by Compounds in HEK-Blue™ ISG KO-STING Cells (Method 1)
(§2) Activation of STING can be determined using a SEAP reporter assay in HEK-Blue™ ISG KO-STING cells (Invivogen, cat #hkb-kostg) transfected with plasmids expressing STING variants (WT & HAQ) (referred to WO2017/175147A1). STING variants (WT & HAQ) vector were constructed based on STING-232H vector (Origene, RC208418). GFP vector (VT2069) was bought from Youbio. The detailed protocol as follows: HEK-Blue™ ISG KO-STING cells were harvest and seeding into 96 well plate, the final cell number was 0.8×10^5 cells/well. Transfections were prepared using Lipofectamine 2000 (Invitrogen, Cat #11668-027) following the manufacturer's instructions (Lipo2000:DNA=1:10), 20 ul of transfection suspension containing 1 ng STING vector was added to cell culture plate and incubated at 37° C., 5% CO2 for 24 h. After 24 hours incubation, compounds were added at proper concentration, and the final DMSO concentration was 0.5%. After 24 h incubation, the supernatant was collected to detect SEAP signal using Great EscAPe SEAP chemiluminescence KIT (Clontech, cat #631738) and cells were collected to detect cell viability using CellTiter-Glo Luminescent Cell Viability Assay (Promega, cat #G7573) following the manufacturer's instructions. The data were described by the ratio of the stimulating signal of compounds to 0.5% DMSO.

[2] = target: T2, STING variants (HAQ) (Homo sapiens, UniProt Q86WV6, G230A/R293Q/R71H); test: SEAP reporter assay in HEK-Blue ISG KO-STING cells transfected with STING HAQ variant (Method 1); details: 24 h
T2 construct: host or cells: HEK-Blue ISG KO-STING cells (Invivogen, hkb-kostg)
Description: as §1, §2

[3] = target: T3, STING (Homo sapiens, UniProt Q86WV6, G230A/H232R/R293Q/R71H); test: IFNβ release from THP1 by STING activation (hIFNβ ELISA); details: THP1 cells, 24 h, IFN-β in supernatant; inactive = IFNβ not detected at the maximum concentration of compounds
T3 construct: THP1 was purchased from National Collection of Authenticated Cell Cultures (Cat #TCHu 57); host or cells: THP1
Protocol: Example III: Compound Stimulate THP1 to Release IFNβ by STING Activation
In this assay, activation of STING by compounds was evaluated by detecting their ability to stimulate the secretion of IFN-β (interferon-beta) from THP1. THP1 was purchased from National Collection of Authenticated Cell Cultures (Cat #TCHu 57). The top dose of compounds was setted according to their solubility. First, Compounds were 3 times diluted with medium, 8-dose points in total. The final DMSO concentration was 0.2%. THP1 during the logarithmic phase was resuspended to 2×10^6 cells/ml in assay medium. The THP1-cell suspension was dispensed into a 96-well U bottom plate containing 50 ul of compound diluted in medium. After 24 h incubation at 37° C., 5% CO2, the supernatant was collected. The concentration of IFN-β in the supernatant was measured using a human IFNβ ELISA KIT (R&D, DY814-05). The data was fitted with GraphPad Prism or XLfit to calculate EC50 values.

[4] = compound concentration 15.65 μM
[5] = compound concentration 169.6 μM

T2 sequence (Q86WV6 whole entry R71H/G230A/R293Q): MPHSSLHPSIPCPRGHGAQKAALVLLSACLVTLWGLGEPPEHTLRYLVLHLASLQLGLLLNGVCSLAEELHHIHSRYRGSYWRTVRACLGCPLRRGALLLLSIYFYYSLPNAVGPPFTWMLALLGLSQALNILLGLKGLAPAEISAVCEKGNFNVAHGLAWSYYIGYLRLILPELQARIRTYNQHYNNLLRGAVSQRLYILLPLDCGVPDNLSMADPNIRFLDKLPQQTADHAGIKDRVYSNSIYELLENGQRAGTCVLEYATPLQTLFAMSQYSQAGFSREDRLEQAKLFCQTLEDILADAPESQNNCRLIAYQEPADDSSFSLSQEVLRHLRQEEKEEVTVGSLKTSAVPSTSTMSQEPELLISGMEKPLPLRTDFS
T3 sequence (Q86WV6 whole entry R71H/G230A/H232R/R293Q): as the sequence (Q86WV6 whole entry R71H/G230A/R293Q) above, with H232R counted along it

Compound	Fold change related to DMSO control, WT ([1]; compound concentration 25 μM) [fold]	Fold change related to DMSO control, HAQ ([2]; compound concentration 25 μM) [fold]	EC50 [3] [µM]	further results
CCn1nc(C)cc1C(=O)Nc1nc2cc(C(N)=O)cc3c2n1C(C)(CO)CO3 (stereo not drawn) [Example 3, 2-(1-Ethyl-3-methyl-1H-pyrazole-5-carboxamido)-3-(hydroxymethyl)-3-methyl-3,4-dihydro-5-oxa-1,2a-diazaacenaphthylene-7-carboxamide]				Fold change related to DMSO control, WT ([1]; compound concentration 125 μM): 1.79 fold; Fold change related to DMSO control, HAQ ([2]; compound concentration 125 μM): 3.54 fold
CCOC(=O)/C=C/C1(C)COc2cc(C(N)=O)cc3nc(NC(=O)c4cc(C)nn4CC)n1c23 (stereo not drawn) [Example 5, Ethyl (E)-3-(7-carbamoyl-2-(1-ethyl-3-methyl-1H-pyrazole-5-carboxamido)-3-methyl-3,4-dihydro-5-oxa-1,2a-diazaacenaphthylen-3-yl)acrylate]				Fold change related to DMSO control, WT [1, 4]: 1.52 fold; Fold change related to DMSO control, HAQ [2, 4]: 1.20 fold
CCn1nc(C)cc1C(=O)Nc1nc2cc(C(N)=O)cc3c2n1[C@@H](CCNC(=O)OC(C)(C)C)CO3 [Example 6, tert-Butyl (S)-(2-(7-carbamoyl-2-(1-ethyl-3-methyl-1H-pyrazole-5-carboxamido)-3,4-dihydro-5-oxa-1,2a-diazaacenaphthylen-3-yl)ethyl)carbamate]				Fold change related to DMSO control, WT [1, 5]: 0.76 fold; Fold change related to DMSO control, HAQ [2, 5]: 4.41 fold
CCn1nc(C)cc1C(=O)Nc1nc2cc(C(N)=O)cc3c2n1[C@@H](CCNC(=O)OCc1ccccc1)CO3 [Example 14, Benzyl (S)-(2-(7-carbamoyl-2-(1-ethyl-3-methyl-1H-pyrazole-5-carboxamido)-3,4-dihydro-5-oxa-1,2a-diazaacenaphthylen-3-yl)ethyl)carbamate]	1.59	27.44		
CCn1nc(C)cc1C(=O)Nc1nc2cc(C(N)=O)cc3c2n1[C@@H](CCCCNC(=O)OCc1ccccc1)CO3 [Example 17, Benzyl (S)-(4-(7-carbamoyl-2-(1-ethyl-3-methyl-1H-pyrazole-5-carboxamido)-3,4-dihydro-5-oxa-1,2a-diazaacenaphthylen-3-yl)butyl)carbamate]	1.76	37.64		
CCn1nc(C)cc1C(=O)Nc1nc2cc(C(N)=O)cc3c2n1C(C)(C)CO3 [Example 21, 2-(1-Ethyl-3-methyl-1H-pyrazole-5-carboxamido)-3,3-dimethyl-3,4-dihydro-5-oxa-1,2a-diazaacenaphthylene-7-carboxamide]	2.18	8.87		
CCn1nc(C)cc1C(=O)Nc1nc2cc(C(N)=O)cc3c2n1C(C)(CN(C)CCc1ccccc1)CO3 (stereo not drawn) [Example 29, 2-(1-Ethyl-3-methyl-1H-pyrazole-5-carboxamido)-3-methyl-3-((methyl(phenethyl)amino)methyl)-3,4-dihydro-5-oxa-1,2a-diazaacenaphthylene-7-carboxamide]	1.06	1.14		
CCn1nc(C)cc1C(=O)Nc1nc2cc(C(N)=O)cc3c2n1[C@@H](COCc1ccccc1)CO3 [Example 30, (S)-3-((Benzyloxy)methyl)-2-(1-ethyl-3-methyl-1H-pyrazole-5-carboxamido)-3,4-dihydro-5-oxa-1,2a-diazaacenaphthylene-7-carboxamide]	1.63	35.09		
CCn1nc(C)cc1C(=O)Nc1nc2cc(C(N)=O)cc3c2n1[C@@H](CCNC(=O)/C=C/c1ccc(C#N)cc1)CO3 [Example 37, (S,E)-3-(2-(3-(4-cyanophenyl)acrylamido)ethyl)-2-(1-ethyl-3-methyl-1H-pyrazole-5-carboxamido)-3,4-dihydro-5-oxa-1,2a-diazaacenaphthylene-7-carboxamide]				Fold change related to DMSO control, WT ([1]; compound concentration 3.11 μM): 1.07 fold; Fold change related to DMSO control, HAQ ([2]; compound concentration 3.11 μM): 1.85 fold
CCn1nc(C)cc1C(=O)Nc1nc2cc(C(N)=O)cc3c2n1[C@@H](CCNC(=O)/C=C/c1cccc(F)c1)CO3 [Example 38, (S,E)-2-(1-ethyl-3-methyl-1H-pyrazole-5-carboxamido)-3-(2-(3-(3-fluorophenyl)acrylamido)ethyl)-3,4-dihydro-5-oxa-1,2a-diazaacenaphthylene-7-carboxamide]	2.96	22.76		
CCn1nc(C)cc1C(=O)Nc1nc2cc(C(N)=O)cc3c2n1[C@@H](CCNC(=O)/C=C/c1ccccc1OC)CO3 [Example 39, (S,E)-2-(1-ethyl-3-methyl-1H-pyrazole-5-carboxamido)-3-(2-(3-(2-methoxyphenyl)acrylamido)ethyl)-3,4-dihydro-5-oxa-1,2a-diazaacenaphthylene-7-carboxamide]	2.78	25.85		
CCn1nc(C)cc1C(=O)Nc1nc2cc(C(N)=O)cc3c2n1[C@@H](CCNC(=O)OCCc1ccccc1)CO3 [Example 42, Phenethyl (S)-(2-(7-carbamoyl-2-(1-ethyl-3-methyl-1H-pyrazole-5-carboxamido)-3,4-dihydro-5-oxa-1,2a-diazaacenaphthylen-3-yl)ethyl)carbamate]				Fold change related to DMSO control, WT ([1]; compound concentration 21.4 μM): 1.10 fold; Fold change related to DMSO control, HAQ ([2]; compound concentration 21.4 μM): 10.52 fold
CCn1nc(C)cc1C(=O)Nc1nc2cc(C(N)=O)cc3c2n1CC(C)(C)CN3CCOC [Example 73, 1-(1-ethyl-3-methyl-1H-pyrazole-5-carboxamido)-6-(2-methoxyethyl)-8,8-dimethyl-6,7,8,9-tetrahydro-2,6,9a-triazabenzo[cd]azulene-4-carboxamide]			6.8	
CCn1nc(C)cc1C(=O)Nc1nc2cc(C(N)=O)cc3c2n1CC(C)(C)CN3CCCOC [Example 74, 1-(1-Ethyl-3-methyl-1H-pyrazole-5-carboxamido)-6-(3-methoxypropyl)-8,8-dimethyl-6,7,8,9-tetrahydro-2,6,9a-triazabenzo[cd]azulene-4-carboxamide]			11.8	
CCn1nc(C)cc1C(=O)Nc1nc2cc(C(N)=O)cc3c2n1CC(C)(C)CN3CCOCc1ccccc1 [Example 75, 6-(2-(benzyloxy)ethyl)-1-(1-ethyl-3-methyl-1H-pyrazole-5-carboxamido)-8,8-dimethyl-6,7,8,9-tetrahydro-2,6,9a-triazabenzo[cd]azulene-4-carboxamide]			7.7	
CCn1nc(C)cc1C(=O)Nc1nc2cc(C(N)=O)cc3c2n1CC(C)(C)CN3CCO [Example 76, 1-(1-ethyl-3-methyl-1H-pyrazole-5-carboxamido)-6-(2-hydroxyethyl)-8,8-dimethyl-6,7,8,9-tetrahydro-2,6,9a-triazabenzo[cd]azulene-4-carboxamide]			9.9	
CCn1nc(C)cc1C(=O)Nc1nc2cc(C(N)=O)cc3c2n1CC1(CCC1)CO3 [Example 77, 1-(1-ethyl-3-methyl-1H-pyrazole-5-carboxamido)-7H,9H-6-oxa-2,9a-diazaspiro[benzo[cd]azulene-8,1′-cyclobutan]-1,2a,2a1(5a),4-tetraene-4-carboxamide]			20.8	
CCn1nc(C)c(F)c1C(=O)Nc1nc2cc(C(N)=O)cc3c2n1CC1(CCC1)CO3 [Example 78, 1-(1-Ethyl-4-fluoro-3-methyl-1H-pyrazole-5-carboxamido)-7H,9H-6-oxa-2,9a-diazaspiro[benzo[cd]azulene-8,1′-cyclobutan]-1,2a,2a1(5a),4-tetraene-4-carboxamide]			19	
